Active and inactive are the calls of the source. The calls are words filed in the database; no cut-off is given here.
Experiments:
[1] = test system: Human betaherpesvirus 5; experiment: microbe, parasite or virus in culture; conditions: Human betaherpesvirus 5, Davis, HEL
[2] = test system: Human immunodeficiency virus 1; experiment: Antiviral activity against HIV1 3B infected in human […] cells assessed as virus-induced CEM giant cell formation after 4 days; format: functional, organism-based
[3] = test system: Vesicular stomatitis virus; format: functional, organism-based; conditions: HeLa
[4] = test system: Influenza A virus; format: functional, organism-based; conditions: H1N1, MDCK
[5] = test system: Vesicular stomatitis virus; format: functional, organism-based; conditions: MDCK
[6] = test system: Human alphaherpesvirus 3; experiment: microbe, parasite or virus in culture; conditions: Human alphaherpesvirus 3, 07-1, HEL
[7] = test system: Human betaherpesvirus 5; experiment: microbe, parasite or virus in culture; conditions: Human betaherpesvirus 5, AD169, HEL
[8] = test system: Influenza B virus; format: functional, organism-based; conditions: MDCK
[9] = test system: Human alphaherpesvirus 1; experiment: microbe, parasite or virus in culture; conditions: Human alphaherpesvirus 1, KOS, HEL
[10] = test system: Influenza A virus; format: functional, organism-based; conditions: H3N2, MDCK
[11] = test system: HeLa; experiment: cells; conditions: Homo sapiens, 96 h
[12] = test system: Punta Toro virus; format: functional, organism-based; conditions: Vero
[13] = test system: Vaccinia virus; experiment: microbe, parasite or virus in culture; conditions: Orthopoxvirus vaccinia, HEL
[14] = test system: Human immunodeficiency virus 2; experiment: Antiviral activity against HIV2 ROD infected in human […] cells assessed as virus-induced CEM giant cell formation after 4 days; format: functional, organism-based; conditions: ISOLATE ROD
[15] = test system: Human alphaherpesvirus 3; experiment: microbe, parasite or virus in culture; conditions: Human alphaherpesvirus 3, strain Oka vaccine, HEL
[16] = test system: Human alphaherpesvirus 1; experiment: microbe, parasite or virus in culture; conditions: Human alphaherpesvirus 1, KOS, HEL; remark: listed apart in the source
[17] = test system: Human respirovirus 3; format: functional, organism-based; conditions: Vero
[18] = in vitro; conditions: human, HEL cells
[19] = test system: Mammalian orthoreovirus 1; format: functional, organism-based; conditions: Vero
[20] = test system: L1210; experiment: cells; conditions: Mus musculus, L1210, 48 h
[21] = test system: Coxsackievirus B4; format: functional, organism-based; conditions: HeLa
[22] = test system: Human alphaherpesvirus 2; experiment: microbe, parasite or virus in culture; conditions: Human alphaherpesvirus 2, strain G, HEL
[23] = test system: Sindbis virus; format: functional, organism-based; conditions: Vero
[24] = test system: CCRF-CEM; experiment: cells; conditions: Homo sapiens, 72 h

Row | Compound | EC50 [1] [µM] | inhibition [2] | inhibition [3] | inhibition [4] | inhibition [5] | EC50 [6] [µM] | EC50 [7] [µM] | inhibition [8] | EC50 [9] [µM] | inhibition [10] | IC50 [11] [µM] | inhibition [12] | EC50 [13] [µM] | inhibition [14] | EC50 [16] [µM] | CC50 at 72 h [18] [µM] | MCC at 72 h [18] [µM] | IC50 [20] [µM] | EC50 [22] [µM] | IC50 [24] [µM] | further results
1 | O=c1[nH]c(=O)n([C@H]2C[C@H](O)[C@@H](CO)O2)cc1-c1cn(-c2c(F)cccc2F)nn1 | 18 | inactive | inactive | inactive | inactive | 6.1 | 29 | inactive | 36 | inactive | 0.51 | inactive | 38 | inactive | 31 | 1.5 | ≥ 10 | 2.9 | ≥ 50 | 1.5 | EC50 [15]: 3.1 µM; inhibition [17]: inactive; inhibition [19]: inactive; inhibition [21]: inactive; inhibition [23]: inactive
2 | Nc1ccn(C[C@@H](CO)OCP(=O)(O)O)c(=O)n1 [CIDOFOVIR] | 0.4 | – | – | – | – | – | – | – | 0.8 | – | – | – | – | – | 0.8 | > 250 | > 250 | – | 1.4 | – | –
3 | O=c1[nH]c(=O)n([C@H]2C[C@H](O)[C@@H](CO)O2)cc1-c1cn(-c2ccc(Cl)cc2)nn1 | > 131 | inactive | inactive | inactive | inactive | 48 | > 240 | inactive | > 240 | inactive | 4 | inactive | > 240 | inactive | > 240 | 7.4 | > 240 | 14.8 | > 240 | 13 | EC50 [15]: 41 µM; inhibition [17]: inactive; inhibition [19]: inactive; inhibition [21]: inactive; inhibition [23]: inactive
4 | O=c1[nH]c(=O)n([C@H]2C[C@H](O)[C@@H](CO)O2)cc1-c1cnnn1-c1ccc(Br)cc1 | – | – | – | – | – | – | – | – | > 100 | – | 8 | – | > 100 | – | > 100 | – | > 100 | 61 | > 100 | 47 | –
5 | O=c1[nH]c(=O)n([C@H]2C[C@H](O)[C@@H](CO)O2)cc1-c1cn(-c2ccc(Br)cc2)nn1 | 25 | inactive | inactive | inactive | inactive | 14 | 45 | inactive | 132 | inactive | 1.37 | inactive | 31 | inactive | 132 | 1 | ≥ 44 | 4.6 | ≥ 100 | 1.8 | EC50 [15]: 2.6 µM; inhibition [17]: inactive; inhibition [19]: inactive; inhibition [21]: inactive; inhibition [23]: inactive
6 | O=c1[nH]c(=O)n([C@H]2C[C@H](O)[C@@H](CO)O2)cc1-c1cn(-c2ccccc2)nn1 | > 270 | inactive | inactive | inactive | inactive | > 270 | > 270 | inactive | > 50 | inactive | 56 | inactive | > 50 | inactive | > 50 | 270 | 270 | 204 | > 50 | 75 | EC50 [15]: > 270 µM; inhibition [17]: inactive; inhibition [19]: inactive; inhibition [21]: inactive; inhibition [23]: inactive
7 | CC(C)(C)c1ccc(-n2cc(-c3cn([C@H]4C[C@H](O)[C@@H](CO)O4)c(=O)[nH]c3=O)nn2)cc1 | > 50 | inactive | inactive | inactive | inactive | 35 | > 50 | inactive | > 50 | inactive | 9 | inactive | 37 | inactive | > 50 | 12.4 | 230 | 15 | > 50 | 11 | EC50 [15]: 7.7 µM; inhibition [17]: inactive; inhibition [19]: inactive; inhibition [21]: inactive; inhibition [23]: inactive
8 | O=c1[nH]c(=O)n([C@H]2C[C@H](O)[C@@H](CO)O2)cc1-c1cn(-c2cc(F)cc(F)c2)nn1 | > 50 | inactive | inactive | inactive | inactive | > 50 | > 50 | inactive | > 220 | inactive | – | inactive | > 220 | inactive | > 220 | 36 | 220 | – | > 220 | – | EC50 [15]: > 50 µM; inhibition [17]: inactive; inhibition [19]: inactive; inhibition [21]: inactive; inhibition [23]: inactive
9 | O=c1[nH]c(=O)n([C@H]2C[C@H](O)[C@@H](CO)O2)cc1-c1cn(-c2ccc(Oc3ccccc3)cc2)nn1 | 16.4 | inactive | inactive | inactive | inactive | 5.7 | 19.4 | inactive | 31 | inactive | 0.28 | inactive | 4.3 | inactive | 8.6 | 0.45 | 130 | 0.5 | ≥ 43 | 0.8 | EC50 [15]: 1.4 µM; inhibition [17]: inactive; inhibition [19]: inactive; inhibition [21]: inactive; inhibition [23]: inactive
10 | O=c1[nH]cc(F)c(=O)[nH]1 [FLUOROURACIL] | – | – | – | – | – | – | – | – | – | – | 0.57 | – | – | – | – | – | – | 0.56 | – | 14 | –
11 | CCCCc1ccc(-n2cc(-c3cn([C@H]4C[C@H](O)[C@@H](CO)O4)c(=O)[nH]c3=O)nn2)cc1 | > 50 | inactive | inactive | inactive | inactive | > 50 | > 50 | inactive | > 50 | inactive | 23 | inactive | > 50 | inactive | > 50 | 147 | 230 | 15 | > 50 | 60 | EC50 [15]: > 50 µM; inhibition [17]: inactive; inhibition [19]: inactive; inhibition [21]: inactive; inhibition [23]: inactive
12 | NC(=O)c1ncn([C@@H]2O[C@H](CO)[C@@H](O)[C@H]2O)n1 [RIBAVIRIN] | > 100 | – | – | – | – | – | > 100 | – | > 250 | – | – | – | > 250 | – | > 250 | > 250 | > 250 | – | > 250 | – | –
13 | O=c1[nH]c(=O)n([C@H]2C[C@H](O)[C@@H](CO)O2)cc1-c1cnnn1-c1ccc(Oc2ccccc2)cc1 | – | – | – | – | – | – | – | – | > 100 | – | 42 | – | > 100 | – | > 100 | – | > 100 | 134 | > 100 | 107 | –
14 | O=c1[nH]c(=O)n([C@H]2C[C@H](O)[C@@H](CO)O2)cc1/C=C/Br [BRIVUDINE] | – | – | – | – | – | 54.4 | – | – | – | – | – | – | – | – | 6 | > 250 | > 250 | – | 180 | – | –
15 | O=c1[nH]c(=O)n([C@H]2C[C@H](O)[C@@H](CO)O2)cc1-c1cnnn1-c1c(F)cccc1F | – | – | – | – | – | – | – | – | > 100 | – | 5 | – | > 100 | – | > 100 | – | > 100 | 10 | > 100 | 12 | –
16 | Nc1nc2c(ncn2COCCO)c(=O)[nH]1 [ACYCLOVIR] | – | – | – | – | – | 16.5 | – | – | – | – | – | – | > 250 | – | 10 | > 130 | > 50 | – | – | – | –
17 | Nc1nc2c(ncn2COC(CO)CO)c(=O)[nH]1 [GANCICLOVIR] | – | – | – | – | – | – | – | – | – | – | – | – | > 100 | – | 0.1 | > 250 | > 250 | – | 0.04 | – | –
18 | CC(C)c1ccc(-n2nncc2-c2cn([C@H]3C[C@H](O)[C@@H](CO)O3)c(=O)[nH]c2=O)cc1 | – | – | – | – | – | – | – | – | > 100 | – | > 200 | – | > 100 | – | > 100 | – | > 100 | > 200 | > 100 | > 200 | –
